Data set [1] in a line: Cytotoxicity against mouse RAW264.7 cells assessed as growth inhibition at 25 uM after 48 hrs by MTT assay relative to control. The format is cell-based. The following applies: read-out: GI.
Data set [2] concerns Mycobacterium tuberculosis. In words: Antibacterial activity against Mycobacterium tuberculosis H37Rv after 1 week by MABA. It counts as functional. The following applies: 168 h. (In general: The colour change of resazurin is a common sign of viable cells or microbes.)
The test system of data set [3] is Mycobacterium tuberculosis. As to the kind of experiment: Antibacterial activity against Mycobacterium tuberculosis H37Rv after 1 week in presence of efflux pump inhibitor verapamil by MABA. The format is functional. The following applies: 168 h.
Data set [4] has as its system Mycobacterium tuberculosis. As to the kind of experiment: Antibacterial activity against Mycobacterium tuberculosis H37Rv after 1 week in presence of efflux pump inhibitor piperine by MABA. The format is functional. The settings on record: 168 h.
Data set [5] relates to Mycobacterium tuberculosis. In words: Antibiofilm activity against Mycobacterium tuberculosis H37Rv at 10 ug/ml after 1 week. The format is functional.
In data set [6] the test system is Mycobacterium tuberculosis. In words: Antibacterial activity against non replicating Mycobacterium tuberculosis H37Rv assessed as log reduction in bacterial count at 10 ug/ml incubated for 7 days followed by compound dilution measured after 4 weeks. It counts as functional.
Data set [7] deals with Mycobacterium tuberculosis. As to the kind of experiment: Bactericidal activity against Mycobacterium tuberculosis H37Rv incubated up to 21 days. The format is functional, organism-based.
Data set [8] has as its system Mycobacterium tuberculosis. As to the kind of experiment: Bacteriostatic activity against Mycobacterium tuberculosis H37Rv assessed as reduction in bacterial count at 25 uM incubated up to 21 days relative to control. The format is functional.
For data set [9], the system named is Mycobacterium tuberculosis. In words: Ratio of MBC to MIC for Mycobacterium tuberculosis H37Rv. The format is functional.
The target in data set [10] is T1, Glutamate racemase (Mycobacterium tuberculosis (strain ATCC 25618 / H37Rv)) (UniProt P9WPW9).
T1 sequence (whole entry): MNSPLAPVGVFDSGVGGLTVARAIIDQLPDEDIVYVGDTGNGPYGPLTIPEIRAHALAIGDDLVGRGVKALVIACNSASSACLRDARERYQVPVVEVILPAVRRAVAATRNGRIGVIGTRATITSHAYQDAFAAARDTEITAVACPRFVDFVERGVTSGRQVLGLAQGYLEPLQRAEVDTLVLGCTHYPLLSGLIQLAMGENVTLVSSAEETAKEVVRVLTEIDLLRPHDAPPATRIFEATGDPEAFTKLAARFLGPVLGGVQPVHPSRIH
In words: Binding affinity to Mycobacterium tuberculosis glutamate racemase assessed as change in melting temperature by SYPRO orange dye based fluorescence assay.

The test system of data set [11] is Mycobacterium tuberculosis. As to the kind of experiment: Bacteriostatic activity against Mycobacterium tuberculosis H37Rv at 5 to 20 uM incubated up to 21 days. It counts as functional, organism-based.
In data set [12] the test system is Mycobacterium marinum. In words: Antibacterial activity against Mycobacterium marinum ATCC BAA-535 infected in zebra fish assessed as log reduction in bacterial load at 10 mg/kg, po for 7 days. The format is functional.
For data set [13], the target named is T1, Glutamate racemase (Mycobacterium tuberculosis (strain ATCC 25618 / H37Rv)). In words: Non-competitive inhibition of Mycobacterium tuberculosis glutamate racemase assessed as change in melting temperature by SYPRO orange dye based fluorescence assay.
Data set [14] shares this target. In words: Non-competitive inhibition of Mycobacterium tuberculosis glutamate racemase assessed as change in melting temperature in presence of substrate D-glutamate by SYPRO orange dye based fluorescence assay.
The subject of data set [15] is Mycobacterium marinum. In words: Antibacterial activity against Mycobacterium marinum ATCC BAA-535 infected in zebra fish assessed as log reduction in bacterial load at 5 mg/kg, po for 7 days. The format is functional.

Molecules are shown by their SMILES. ≈ marks a conversion by molar mass, not a printed value. Calls of active or inactive are those of the source. No cut-off for these calls is given here.

For `O=C(Nc1ccc(Cl)cc1)Nc1cccc(-c2nc3cc(C(F)(F)F)ccc3s2)c1`, the inhibition at 48 h, 25 µM in [1] is 45.7%. For the same molecule, in data set [2], inhibition of growth (MIC) required 55.9 µM (≈ 25 µg/mL).

Turning to `COc1ccc(NC(=O)Nc2cccc(-c3nc4cc(C(F)(F)F)ccc4s3)c2)cc1`, the inhibition at 48 h, 25 µM in data set [1] stood at 59.1%. The molecule also returned an MIC in [2] of 56.4 µM (≈ 25 µg/mL).

Regarding `Cc1ccc(NC(=O)Nc2cccc(-c3nc4ccccc4s3)c2)cc1`, the inhibition at 48 h, 25 µM in [1] was determined as 31.2%. Also, the minimum inhibitory concentration (MIC) is 2.17 µM in data set [3], 69.7 µM (≈ 25 µg/mL) in data set [2] and 69.7 µM in data set [4].

Take `O=C(Nc1ccc([N+](=O)[O-])cc1)Nc1cccc(-c2nc3ccccc3s2)c1`: the inhibition at 48 h, 25 µM in data set [1] came to 42.1%. Besides, the “log(activity)” value is 0.7 in [5] and 2.1 in [6]. The Activity entry in data set [7] is “Dose-dependent effect”. The “fold change (FC)” value in data set [8] was above 3. Also, the results for the MIC in data set [3], in [2] and in [4] were 2.04 µM, 8.09 µM (≈ 3.16 µg/mL) and 8.09 µM, respectively. For the same molecule, in data set [9], the Ratio is given as below 4.

Turning to `N[C@H](CCC(=O)O)C(=O)O`, the shift in melting temperature (ΔTm) in [10] amounted to 2.4 °C.

For `Cc1ccc(NC(=S)Nc2cccc(-c3nc4cc(C(F)(F)F)ccc4s3)c2)cc1`, in data set [1], the inhibition at 48 h, 25 µM was determined as 97.1%. Besides, the minimal inhibitory concentration (MIC) in [2] is 28.3 µM (≈ 12.5 µg/mL).

For `Fc1ccc(NC(=S)Nc2cccc(-c3nc4ccccc4s3)c2)cc1`, in data set [1], the inhibition at 48 h, 25 µM was 98.2%. Moreover, the minimum inhibitory concentration (MIC) in data set [3] is 2.15 µM; in data set [2] it was 2.15 µM (≈ 0.816 µg/mL); in data set [4], 2.15 µM.

With `FC(F)(F)c1ccc2sc(-c3cccc(NC(=S)NCc4ccccc4)c3)nc2c1`, the inhibition at 48 h, 25 µM in data set [1] came out at 96.1%. The “log(activity)” value in [5] turned out to be 1.8; in data set [6], 2.1. In addition, the outcome in data set [11] was Active. The MIC in data set [2] is 14.7 µM (≈ 6.52 µg/mL). For the same molecule, the Ratio in data set [9] is above 4.

As for `O=[N+]([O-])c1ccc(NC(=S)Nc2cccc(-c3nc4ccccc4s3)c2)cc1`, the inhibition at 48 h, 25 µM in data set [1] was 98.2%. In addition, the MIC in [2] turned out to be 61.6 µM (≈ 25 µg/mL).

As for `O=[N+]([O-])c1ccc(NC(=S)Nc2cccc(-c3nc4cc(C(F)(F)F)ccc4s3)c2)cc1`, the inhibition at 48 h, 25 µM in data set [1] is 18.4%. Besides, the MIC was found to be 3.34 µM in [3], 52.7 µM (≈ 25 µg/mL) in data set [2] and 52.7 µM in [4].

With `FC(F)(F)c1ccc2sc(-c3cccc(NC(=S)Nc4ccccc4)c3)nc2c1`, the inhibition at 48 h, 25 µM in data set [1] was determined as 28.1%. The results for the minimal inhibitory concentration (MIC) in [3], in data set [2] and in data set [4] were 1.84 µM, 14.7 µM (≈ 6.3 µg/mL) and 14.6 µM, respectively.

As for `COc1c(N2C[C@@H]3CCCN[C@@H]3C2)c(F)cc2c(=O)c(C(=O)O)cn(C3CC3)c12` [MOXIFLOXACIN], the figures for the “log(activity)” value (in data set [5]; with Mycobacterium marinum [12]) were 1.8 and 2.5, respectively. For the same molecule, the outcome in data set [6] was Active.

For `O=C(Nc1ccccc1)Nc1cccc(-c2nc3ccccc3s2)c1`, the inhibition at 48 h, 25 µM in data set [1] is 97.2%. The same molecule had an MIC in [2] of 72.9 µM (≈ 25.2 µg/mL).

Take `O=C(Nc1ccc([N+](=O)[O-])cc1)Nc1cccc(-c2nc3cc(C(F)(F)F)ccc3s2)c1`: the inhibition at 48 h, 25 µM in data set [1] amounted to 99.2%. The MIC in [2] turned out to be 54.7 µM (≈ 25.1 µg/mL).

As to `S=C(Nc1ccc(Cl)cc1)Nc1cccc(-c2nc3ccccc3s2)c1`, in data set [1], the inhibition at 48 h, 25 µM amounted to 58.4%. Further, the MIC in data set [2] was 2.09 µM (≈ 0.828 µg/mL).

Regarding `Fc1ccc(NC(=S)Nc2cccc(-c3nc4cc(C(F)(F)F)ccc4s3)c2)cc1`, in data set [1], the inhibition at 48 h, 25 µM came out at 76.3%. Also, the result in data set [11] was Active. Also, in data set [6], the “log(activity)” value worked out at 2.1. For the same molecule, the minimal inhibitory concentration (MIC) in data set [3] amounted to 7.01 µM; in [2] it was 27.9 µM (≈ 12.5 µg/mL); in [4], 27.9 µM. The Ratio in data set [9] was above 4.

For the molecule `Cc1ccc(NC(=S)Nc2cccc(-c3nc4ccccc4s3)c2)cc1`, the ΔTm in [13] is 3.9 °C; in [14], 4.7 °C. Also, in data set [1], the inhibition at 48 h, 25 µM was 17.5%. Besides, the “log(activity)” value in data set [5] amounted to 2; with Mycobacterium marinum [12], 3.5; in data set [6], 2.1. Further, the outcome in data set [11] was Active. Further, the results for the MIC in data set [3], in data set [2] and in data set [4] were 8.29 µM, 16.6 µM (≈ 6.24 µg/mL) and 16.6 µM, respectively. The Ratio in data set [9] is above 4.

On to `O=C(Nc1ccc(F)cc1)Nc1cccc(-c2nc3cc(C(F)(F)F)ccc3s2)c1`, for which the inhibition at 48 h, 25 µM in [1] is 97.7%. Also, the minimum inhibitory concentration (MIC) in data set [2] was determined as 57.9 µM (≈ 25 µg/mL).

For the molecule `O=C(Nc1ccc(Cl)cc1)Nc1cccc(-c2nc3ccccc3s2)c1`, the inhibition at 48 h, 25 µM in [1] was 30.1%. This molecule had a minimum inhibitory concentration (MIC) in data set [2] of 65.9 µM (≈ 25 µg/mL).

For `COc1ccc(NC(=O)Nc2cccc(-c3nc4ccccc4s3)c2)cc1`, the inhibition at 48 h, 25 µM in data set [1] was 56.1%. In addition, the lowest concentration to inhibit growth in data set [2] (MIC) was 33.3 µM (≈ 12.5 µg/mL).

For the molecule `S=C(Nc1ccccc1)Nc1cccc(-c2nc3ccccc3s2)c1`, in data set [1], the inhibition at 48 h, 25 µM amounted to 2.35%. The same molecule displayed an MIC in [2] of 69.2 µM (≈ 25 µg/mL).

Consider `O=C(Nc1ccc(F)cc1)Nc1cccc(-c2nc3ccccc3s2)c1`, for which, in [10], the ΔTm worked out at 3.3 °C.

`CO[C@H]1/C=C/O[C@@]2(C)Oc3c(C)c(O)c4c(O)c(c(/C=N/N5CCN(C)CC5)c(O)c4c3C2=O)NC(=O)/C(C)=C\C=C\[C@H](C)[C@H](O)[C@@H](C)[C@@H](O)[C@@H](C)[C@H](OC(C)=O)[C@@H]1C` [RIFAMPIN]: the entries for the “log(activity)” value in data set [5] and in [6] were 1.2 and 0.5, respectively. Also, the figures for the MIC in [3], in data set [2] and in data set [4] were 0.15 µM, 0.15 µM (≈ 0.123 µg/mL) and 0.15 µM, respectively.

Consider `CC[C@@H](CO)NCCN[C@@H](CC)CO` [ETHAMBUTOL], for which the MIC in data set [3] is 3.82 µM; in data set [2], 7.64 µM (≈ 1.56 µg/mL); in [4], 3.82 µM.

Consider `O=C(Nc1ccccc1)Nc1cccc(-c2nc3cc(C(F)(F)F)ccc3s2)c1`, for which the inhibition at 48 h, 25 µM in [1] was 40%. It took 3.76 µM (≈ 1.55 µg/mL) to inhibit growth in data set [2] (MIC).

For the molecule `S=C(NCc1ccccc1)Nc1cccc(-c2nc3ccccc3s2)c1`, the inhibition at 48 h, 25 µM in data set [1] turned out to be 32.2%. The minimal inhibitory concentration (MIC) in data set [3] was determined as 2.12 µM; in data set [2] it was 66.6 µM (≈ 25 µg/mL); in [4] it was 66.6 µM.

With `FC(F)(F)c1ccc2sc(-c3cccc(NC(=S)Nc4ccc(Cl)cc4)c3)nc2c1`, in data set [1], the inhibition at 48 h, 25 µM was determined as 97.3%. Also, in data set [2], the MIC was 53.9 µM (≈ 25 µg/mL).

As for `Cc1ccc(NC(=O)Nc2cccc(-c3nc4cc(C(F)(F)F)ccc4s3)c2)cc1`, in [1], the inhibition at 48 h, 25 µM turned out to be 22.5%. Further, in [2], inhibition of growth (MIC) required 58.6 µM (≈ 25 µg/mL).

As to `NNC(=O)c1ccncc1` [ISONIAZID], the “log(activity)” value in data set [5] was determined as 1; in data set [6], 1.1; with Mycobacterium marinum [15], 2.6. The figures for the MIC in data set [3], in [2] and in data set [4] were 0.72 µM, 0.72 µM (≈ 0.0987 µg/mL) and 0.72 µM, respectively.

In general, MIC refers to the lowest concentration found to suppress growth. A word on the ΔTm: it is the change in melting temperature against a reference sample.

Source of the values: ChEMBL document CHEMBL4184184, “Lead identification and optimization of bacterial glutamate racemase inhibitors” (Bioorg Med Chem, 2018).
